According to ChEMBL document CHEMBL5537187, “Discovery of N-(1-(6-Oxo-1,6-dihydropyrimidine)-pyrazole) Acetamide Derivatives as Novel Noncovalent DprE1 Inhibitors against Mycobacterium tuberculosis” (J Med Chem, 2024):
≈ marks a conversion by molar mass, not a printed value. Calls of active or inactive are those of the source. The calls are words filed in the database; no cut-off is given here.

Assays:
[1] = tested on: Mycolicibacterium smegmatis; test: Antimycobacterial activity against Mycobacterium smegmatis […] assessed as inhibition of bacterial growth incubated for 48 hrs by spectrophotometer; type: functional
in vitro = conditions: human, HepG2 cells
Description: Cytotoxicity against human HepG2 cells assessed as reduction in cell viability

[2] = tested on: Mycobacterium tuberculosis; test: microbe, parasite or virus in culture; conditions: H37Ra
Description: Antimycobacterial activity against autoluminescent Mycobacterium tuberculosis H37Ra assessed as inhibition of bacterial growth measured after 3 to 7 days by luminescence based analysis

[3] = Antimicrobial activity against Lactobacillus reuteri assessed as inhibition of microbial growth upto 2 uM; type: toxicity; conditions: limosilactobacillus reuteri
[4] = Antimicrobial activity against Akkermansia muciniphila assessed as inhibition of microbial growth upto 2 uM; type: toxicity
[5] = molecular target: T1, Decaprenylphosphoryl-beta-D-ribose oxidase (Mycobacterium tuberculosis (strain ATCC 25618 / H37Rv), UniProt P9WJF1)
T1 sequence (P9WJF1 whole entry): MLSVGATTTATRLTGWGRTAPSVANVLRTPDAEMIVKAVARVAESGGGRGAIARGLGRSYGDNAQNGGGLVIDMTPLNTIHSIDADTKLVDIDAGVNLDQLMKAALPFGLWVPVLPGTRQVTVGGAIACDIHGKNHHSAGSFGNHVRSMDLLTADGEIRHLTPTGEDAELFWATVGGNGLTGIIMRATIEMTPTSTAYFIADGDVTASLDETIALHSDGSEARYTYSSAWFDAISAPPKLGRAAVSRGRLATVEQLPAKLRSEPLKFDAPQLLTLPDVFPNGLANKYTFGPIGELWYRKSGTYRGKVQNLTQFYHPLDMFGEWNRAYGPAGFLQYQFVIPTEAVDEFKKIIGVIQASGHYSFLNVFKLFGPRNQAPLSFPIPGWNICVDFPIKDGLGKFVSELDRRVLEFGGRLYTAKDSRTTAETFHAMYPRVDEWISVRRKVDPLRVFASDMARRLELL
Description: Binding affinity to Mycobacterium tuberculosis DprE1 assessed as dissociation constant by biolayer interferometry

[6] = molecular target: T2, Decaprenylphosphoryl-beta-D-ribose oxidase (Mycobacterium tuberculosis (strain ATCC 25618 / H37Rv)) (UniProt P9WJF1); test: Binding affinity to Mycobacterium tuberculosis DprE1 upto 166.7 microM by biolayer interferometry
T2 sequence (whole entry): T1 sequence (P9WJF1 whole entry)

[7] = Antimicrobial activity against Clostridium tyrobutyricum assessed as inhibition of microbial growth upto 2 uM; type: toxicity
[8] = tested on: Mycobacterium tuberculosis; type: functional; conditions: H37Ra
[9] = tested on: Mycolicibacterium smegmatis; test: Antimycobacterial activity against Mycobacterium smegmatis […] assessed as inhibition of bacterial growth at 10 uM incubated for 48 hrs by spectrophotometer relative to control; type: functional
[10] = tested on: Mycobacterium tuberculosis; test: Antimycobacterial activity against Mycobacterium tuberculosis assessed as inhibition of bacterial growth incubated for 24 hrs by alamar blue assay; type: functional
[11] = Antimicrobial activity against Bifidobacterium pseudocatenulatum assessed as inhibition of microbial growth upto 2 uM; type: toxicity
[12] = tested on: Mycolicibacterium smegmatis; test: Synergistic antimycobacterial activity against Mycobacterium smegmatis assessed as inhibition of bacterial growth at 0.5 times MIC50 incubated for 7 days in presence of 0.5 times MIC50 of rifampicin by checkerboard assay; type: functional, organism-based; conditions: time 7.0 day
[13] = tested on: Mycolicibacterium smegmatis; test: Synergistic antimycobacterial activity against Mycobacterium smegmatis assessed as inhibition of bacterial growth at 0.5 times MIC50 incubated for 7 days in presence of 0.5 times MIC50 of ethambutol by checkerboard assay; type: functional, organism-based; conditions: time 7.0 day
[14] = Cytotoxicity against human Chang liver cells assessed as inhibition of cell growth; type: toxicity, cell-based

SMILES	MIC [1]	IC50 (in vitro)	MIC90 [2]	also measured
CCc1ccc(N2CC(C(=O)Nc3ccccc3C(=O)Nc3nnc(CC)s3)CC2=O)cc1 (centres undefined)	> 50 µM	165 µM	–	–
Cc1cccc(C(=O)Nc2cc(C)nn2-c2nc(C3CC3)cc(=O)[nH]2)c1	–	–	3.12 µM (≈ 1.09 µg/mL)	–
CCOC(=O)C(=O)Nc1cc(C)nn1-c1nc(C)c(CC)c(=O)[nH]1	30.6 µM (≈ 10.2 µg/mL)	83.8 µM	30.6 µM (≈ 10.2 µg/mL)	–
CCc1cc(=O)[nH]c(-n2nc(C)cc2Nc2cccc(C)c2)n1	–	–	0.78 µM (≈ 0.241 µg/mL)	–
CO[C@H]1/C=C/O[C@@]2(C)Oc3c(C)c(O)c4c(O)c(c(/C=N/N5CCN(C)CC5)c(O)c4c3C2=O)NC(=O)/C(C)=C\C=C\[C@H](C)[C@H](O)[C@@H](C)[C@@H](O)[C@@H](C)[C@H](OC(C)=O)[C@@H]1C [RIFAMPIN]	–	–	–	Activity [3]: Non-Toxic; Activity [4]: Toxic; Kd [5]: 93600 µM; Activity [6]: inactive; Activity [7]: Toxic
Cc1cc(NC(=O)c2ccc(C)c(C)c2)n(-c2nc(C)c(C)c(=O)[nH]2)n1	1.06 µM (≈ 0.372 µg/mL)	38.7 µM	3.56 µM (≈ 1.25 µg/mL)	–
O=C(Cc1ccccc1)NNC(=O)c1cc([N+](=O)[O-])cc([N+](=O)[O-])c1	–	–	–	MIC [8]: 1.25 µM (≈ 0.43 µg/mL)
CCc1cc(=O)[nH]c(-n2nc(C)cc2NC(=O)c2cccc(C)c2)n1	–	–	1.56 µM (≈ 0.526 µg/mL)	–
COc1ccc2nc(-n3nc(C)cc3NC(=O)c3cccc(C)c3)[nH]c(=O)c2c1	–	–	0.8 µM (≈ 0.312 µg/mL)	–
Cc1cc(NC(=O)c2cccc(C(F)(F)F)c2)n(-c2nc3ccccc3c(=O)[nH]2)n1	–	–	1.51 µM (≈ 0.624 µg/mL)	–
Cc1cccc(C(=O)Nc2cc(C)nn2-c2nc3cc(F)ccc3c(=O)[nH]2)c1	–	–	1.66 µM (≈ 0.626 µg/mL)	–
CCC(CC)C(=O)Nc1nnc(C2CC(=O)N(c3ccc(C)c(Cl)c3)C2)s1 (centres undefined)	> 50 µM	43 µM	–	–
Cc1cccc(C(=O)Nc2cc(C)nn2-c2nc3ccc(Cl)cc3c(=O)[nH]2)c1	–	–	1.59 µM (≈ 0.626 µg/mL)	–
Cc1cccc(C(=O)Nc2cc(C)nn2-c2nc3ccc(F)cc3c(=O)[nH]2)c1	–	–	0.83 µM (≈ 0.313 µg/mL)	–
Cc1cccc(Nc2cc(C)nn2-c2nc3ccccc3c(=O)[nH]2)c1	–	–	0.94 µM (≈ 0.311 µg/mL)	–
Cc1cccc(C(=O)Nc2cc(C)nn2-c2nc3ccc(C)cc3c(=O)[nH]2)c1	–	–	0.84 µM (≈ 0.314 µg/mL)	–
CCc1c(C)nc(-n2nc(C)cc2NC(=O)CCc2ccc(OC)cc2)[nH]c1=O	18 µM (≈ 7.11 µg/mL)	129 µM	6.32 µM (≈ 2.5 µg/mL)	–
CCc1cc(=O)[nH]c(-n2nc(C)cc2N)n1	–	–	6.25 µM (≈ 1.37 µg/mL)	–
CCc1c(C)nc(-n2nc(C)cc2NC(=O)C2CC(=O)N(c3ccc(C)cc3)C2)[nH]c1=O (centres undefined)	29.8 µM (≈ 12.9 µg/mL)	> 100 µM	–	inhibition at 10 µM [9]: 38%

SMILES	MIC [1]	IC50 (in vitro)	MIC90 [2]	also measured
C=CCN1C(=O)NC(=O)/C(=C\NNC(=O)c2ccncc2)C1=O	–	–	–	MIC [10]: 9.75 µM (≈ 3.07 µg/mL)
CCc1cc(=O)[nH]c(-n2nc(C)cc2Nc2cccc([N+](=O)[O-])c2)n1	–	–	1.56 µM (≈ 0.531 µg/mL)	–
Cc1cccc(C(=O)Nc2cc(C)nn2-c2nc3ccccc3c(=O)[nH]2)c1	–	> 100 µM	1.56 µM (≈ 0.561 µg/mL)	Activity [11]: Non-Toxic; Activity [12]: Active; Activity [3]: Non-Toxic; Activity [4]: Non-Toxic; Activity [13]: Active; Activity [14]: Non-Toxic; Activity [7]: Non-Toxic
Cc1cc(NC(=O)c2cccnc2)n(-c2nc3ccccc3c(=O)[nH]2)n1	–	–	1.81 µM (≈ 0.627 µg/mL)	–
COc1ccc2c(=O)[nH]c(-n3nc(C)cc3NC(=O)c3cccc(C)c3)nc2c1	–	–	6.43 µM (≈ 2.5 µg/mL)	–
Cc1cc(NC(=O)Cc2ccccc2)n(-c2nc3ccccc3c(=O)[nH]2)n1	–	–	7.22 µM (≈ 2.59 µg/mL)	–
CCc1cc(=O)[nH]c(-n2nc(C)cc2NC(=O)C2CCCC2)n1	–	–	6.25 µM (≈ 1.97 µg/mL)	–
CCc1cc(=O)[nH]c(-n2nc(C)cc2NC(C)=O)n1	–	–	50 µM (≈ 13.1 µg/mL)	–
Cc1cccc(C(=O)Nc2cc(C)nn2-c2nc3cc(Cl)ccc3c(=O)[nH]2)c1	–	–	3.18 µM (≈ 1.25 µg/mL)	–
CC(=O)N1N=C(c2c(O)n(-c3ccccc3C)c(=O)[nH]c2=O)CC1c1ccccc1 (centres undefined)	> 50 µM	21 µM	–	–
Cc1nc2ccc(NC(=O)c3cc([N+](=O)[O-])cc([N+](=O)[O-])c3Cl)cc2s1	> 50 µM	86.1 µM	–	–
CCc1c(C)nc(-n2nc(C)cc2NC(=O)COc2cccc(C)c2)[nH]c1=O	7.71 µM (≈ 2.94 µg/mL)	41.2 µM	5.98 µM (≈ 2.28 µg/mL)	–
CCc1cc(=O)[nH]c(-n2nc(C)cc2NC(=O)c2cccc([N+](=O)[O-])c2)n1	0.86 µM (≈ 0.317 µg/mL)	55.4 µM	3.12 µM (≈ 1.15 µg/mL)	–
COc1ncnc(Cn2cc(C(=O)NCCO)c3ncc(C)cc32)c1C [TBA-7371]	2.54 µM (≈ 0.903 µg/mL)	165 µM	12.5 µM (≈ 4.44 µg/mL)	–
CCOc1ccc(CC(=O)Nc2cc(C)nn2-c2nc3c(c(=O)[nH]2)CCC3)cc1	18.5 µM (≈ 7.26 µg/mL)	116 µM	18.5 µM (≈ 7.26 µg/mL)	–
NNC(=O)c1ccncc1 [ISONIAZID]	–	> 100 µM	0.78 µM (≈ 0.107 µg/mL)	Activity [11]: Toxic; Activity [3]: Non-Toxic; Activity [7]: Toxic
Cc1cc(NC(=O)c2ccc3ccccc3c2)n(-c2nc3c(c(=O)[nH]2)CCC3)n1	> 50 µM	144 µM	–	–
CCc1cc(=O)[nH]c(-n2nc(C)cc2NC(=O)c2cccc(F)c2)n1	–	–	6.25 µM (≈ 2.13 µg/mL)	–
CCc1cc(=O)[nH]c(-n2nc(C)cc2Nc2cccc(C(F)(F)F)c2)n1	–	> 100 µM	0.78 µM (≈ 0.283 µg/mL)	Activity [11]: Non-Toxic; Activity [12]: Active; Activity [3]: Non-Toxic; Activity [4]: Non-Toxic; Kd [5]: 25 µM; Activity [13]: Active; Activity [14]: Non-Toxic; Activity [7]: Non-Toxic
